Laboratory results taken from patent US20080200404A1, “Novel Antimalarial 9A-Carbamoyl-Aminoalkyl and 9A-Thiocarbamoyl-Aminoalkyl Azalides” (priority 2005, published 2008).
In brackets after ≈: the same amount, converted by molar mass. Where two headings read alike, the source gives them in different places.

Experiments:
Format in all cases: cell-based
[1] = system: Plasmodium falciparum TM91C235; assay: In vitro antimalarial [3H]-hypoxanthine incorporation assay, TM91C235; details: Plasmodium falciparum; P. falciparum TM91C235 (multiple drug resistant isolate), 72 hours exposure
Excerpt: (§1) The in vitro screens for intrinsic antimalarial activity were based on modifications of the procedures described by Desjardins R E, Canfield C J, Haynes J D, Chulay J D. (Quantitative assessment of antimalarial activity in vitro by a semiautomated microdilution technique. Antimicrob Agents Chemother. 1979 December; 16(6):710-8.), Chulay J D, Haynes J D, Diggs C L. (Plasmodium falciparum: Assessment of in vitro growth by [3H]hypoxanthine incorporation. Exp. Parasitol. 1983 55:138-146.), and Milhous W K, Weatherly N F, Bowdre J H, Desjardins R E. (In vitro activities of and mechanisms of resistance to antifol antimalarial drugs. Antimicrob Agents Chemother. 1985 April; 27(4):525-30.). The system was limited to the assessment of the intrinsic activity against the erythrocytic asexual life cycle (blood schizontocides). Two Plasmodium falciparum clones from CDC/Indochina III (W-2) and CDC/Sierra Leone I (D-6) (Oduola A M, Weatherly N F, Bowdre J H, Desjardins R E. Plasmodium falciparum: cloning by single-erythrocyte micromanipulation and heterogeneity in vitro. Exp Parasitol. 1988 66(1):86-95.) were used for all assays. TM91C235, a multiple drug resistant isolate from Thailand, was used for the prescreening assay. W-2 is resistant to chloroquine, quinine, and pyrimethamine and susceptible to mefloquine. D-6 tends to be more resistant to mefloquine and susceptible to chloroquine, quinine, and pyrimethamine. All documents cited in this paragraph are incorporated by reference in their entirety.
(§2) All parasites were maintained in continuous long term cultures in RPMI-1640 medium supplemented with 6% washed human A positive (A+)(erythrocytes, 25 mM Hepes, […], and 10% heat inactivated A+human plasma or ALBUMAX® (lipid-rich bovine serum albumin; Invitrogen, Carlsbad, Calif.). All cultures and assays were conducted at 37° C. under an atmosphere of 5% CO2 and 5% O2, with a balance of N2.
The prescreening assay uses TM91C235 diluted at a 0.4% parasitemia in a 1% hematocrit in folic acid free and p-aminobenzoic acid free media RPMI-1640 and ALBUMAX®. One mg of the compound is typically dissolved in 100 μl of dimethyl sulfoxide (DMSO). The compound is further diluted in culture medium (FF) with ALBUMAX® for the first initial starting concentration. The rest of the stock drug solution was kept at −70° C. The isolate was preexposed, in duplicate, at three concentrations (25,000 ng/ml, 2,500 ng/ml, and 25 ng/ml) of the test compound for 48 hr in a 96-well microtiter plate (MTP) using the BIOMEK® 2000 automated laboratory workstation. Each MTP contains chloroquine as control to assess the relative activity of the compound and to monitor the response of TM91C235.
(§3) After the preincubation, [^3H]-hypoxanthine was added to each well of the MTP. (The assay relies on the incorporation of radiolabeled hypoxanthine by the parasites, which indicates reproduction, and inhibition of isotope incorporation was attributed to activity of known or candidate antimalarial drugs). After 72 hr of total incubation time, the MTP were frozen to lyse the erythrocytes and parasites. The parasite DNA was recovered by harvesting the lysate onto glass-fiber filter plates using a Packard FilterMate™ Cell Harvester. The radioactivity was counted on a Packard TopCount™ microplate scintillation counter. The results were recorded as counts per minutes (CPM) per well at each drug concentration divided by the arithmetic mean of the CPM from the three untreated infection parasite control wells.
The serial dilution assay was conducted using the same assay conditions and stock solution of the compound used for the preliminary screen, described above. Both the D-6 and the W-2 clones were used. The compounds were diluted two-fold over 11 different concentration ranges with a starting concentration that was based on the preliminary screen. […]

[2] = system: Plasmodium falciparum clone CDC/Sierra Leone I (D-6); assay: In vitro antimalarial [3H]-hypoxanthine incorporation serial dilution assay, D6; details: Plasmodium falciparum, D6, 72 h, P. falciparum D6, 72 hours exposure
Excerpt: as §1, §2, §3
(§4) The serial dilution assay was conducted using the same assay conditions and stock solution of the compound used for the preliminary screen, described above. Both the D-6 and the W-2 clones were used. The compounds were diluted two-fold over 11 different concentration ranges with a starting concentration that was based on the preliminary screen. For each drug, the concentration response profile was determined and 50% inhibitory concentrations (IC50) were determined by using a non-linear, logistic dose response analysis program. […] For each assay, the IC50 for each clone was determined against the known antimalarials chloroquine and mefloquine. These control values established the compound's relative parasite susceptibility profile compared to known antimalarials. […]
(§5) The in vitro potency of the compounds has been compared with that of azithromycin to better gauge compounds suitable for further testing. As described above, parasites were exposed for 72 hours. Data from the in vitro potency tests of azithromycin against the three parasite strains have been averaged, and these numbers have been used for identification of “active” macrolide compounds.

[3] = system: Plasmodium falciparum clone CDC/Indochina III (W-2); assay: In vitro antimalarial [3H]-hypoxanthine incorporation serial dilution assay, W2; details: Plasmodium falciparum; P. falciparum W2, 72 hours exposure
Excerpt: as §1, §2, §3, §4, §5

[4] = compared with azithromycin, read-out: IC50 D6 (class symbol)

| Compound | IC50 [1] [µg/mL] | IC50 ([2]; read-out: IC50 D6) [µg/mL] | IC50 [3] [µg/mL] | IC50 [2, 4] [µg/mL] |
| --- | --- | --- | --- | --- |
| CC[C@H]1OC(=O)[C@H](C)[C@@H](O[C@H]2C[C@@](C)(OC)[C@@H](O)[C@H](C)O2)[C@H](C)[C@@H](O[C@@H]2O[C@H](C)C[C@H](N(C)C)[C@H]2O)[C@](C)(O)C[C@@H](C)CN(CCCNC(=O)Nc2ccc3c(c2)OCCCO3)[C@H](C)[C@@H](O)[C@]1(C)O.O=CO [Example 84] | 0.0618 | 0.0289 | 0.042 |  |
| CC[C@H]1OC(=O)[C@H](C)[C@@H](O[C@H]2C[C@@](C)(OC)[C@@H](O)[C@H](C)O2)[C@H](C)[C@@H](O[C@@H]2O[C@H](C)C[C@H](N(C)C)[C@H]2O)[C@](C)(O)C[C@@H](C)CN(CCCNC(=S)NCC(C)C)[C@H](C)[C@@H](O)[C@]1(C)O.O=CO [Example 149] | 0.414 | 0.657 | 0.472 |  |
| CC[C@H]1OC(=O)[C@H](C)[C@@H](O[C@H]2C[C@@](C)(OC)[C@@H](O)[C@H](C)O2)[C@H](C)[C@@H](O[C@@H]2O[C@H](C)C[C@H](N(C)C)[C@H]2O)[C@](C)(O)C[C@@H](C)CN(CCCNC(=O)Nc2ccc3c(c2)CCC3)[C@H](C)[C@@H](O)[C@]1(C)O [Example 64] | 0.0915 (≈ 0.0962 µM) | 0.253 (≈ 0.266 µM) | 0.07 (≈ 0.0736 µM) |  |
| CC[C@H]1OC(=O)[C@H](C)[C@@H](O[C@H]2C[C@@](C)(OC)[C@@H](O)[C@H](C)O2)[C@H](C)[C@@H](O[C@@H]2O[C@H](C)C[C@H](N(C)C)[C@H]2O)[C@](C)(O)C[C@@H](C)CN(CCCNC(=S)Nc2sc3c(c2C(=O)OC)CCCC3)[C@H](C)[C@@H](O)[C@]1(C)O [Example 148] | 0.426 (≈ 0.407 µM) | 0.862 (≈ 0.825 µM) | 0.24 (≈ 0.229 µM) |  |
| CC[C@H]1OC(=O)[C@H](C)[C@@H](O[C@H]2C[C@@](C)(OC)[C@@H](O)[C@H](C)O2)[C@H](C)[C@@H](O[C@@H]2O[C@H](C)C[C@H](N(C)C)[C@H]2O)[C@](C)(O)C[C@@H](C)CN(CCCNC(=S)Nc2ccc(OC)cc2)[C@H](C)[C@@H](O)[C@]1(C)O.O=CO [Example 61] | 0.436 |  | 0.253 | > 0.797 |
| CC[C@H]1OC(=O)[C@H](C)[C@@H](O[C@H]2C[C@@](C)(OC)[C@@H](O)[C@H](C)O2)[C@H](C)[C@@H](O[C@@H]2O[C@H](C)C[C@H](N(C)C)[C@H]2O)[C@](C)(O)C[C@@H](C)CN(CCCNC(=O)NC(C)(C)C)[C@H](C)[C@@H](O)[C@]1(C)O [Example 53] | 0.713 (≈ 0.8 µM) |  | 0.366 (≈ 0.41 µM) | > 0.797 |
| CC[C@H]1OC(=O)[C@H](C)[C@@H](O[C@H]2C[C@@](C)(OC)[C@@H](O)[C@H](C)O2)[C@H](C)[C@@H](O[C@@H]2O[C@H](C)C[C@H](N(C)C)[C@H]2O)[C@](C)(O)C[C@@H](C)CN(CCCNC(=S)Nc2cccc3nsnc23)[C@H](C)[C@@H](O)[C@]1(C)O.O=CO [Example 150] | 0.105 | 0.181 | 0.091 |  |
| CC[C@H]1OC(=O)[C@H](C)[C@@H](O[C@H]2C[C@@](C)(OC)[C@@H](O)[C@H](C)O2)[C@H](C)[C@@H](O[C@@H]2O[C@H](C)C[C@H](N(C)C)[C@H]2O)[C@](C)(O)C[C@@H](C)CN(CCCNC(=S)Nc2ccc(Cl)c(Cl)c2)[C@H](C)[C@@H](O)[C@]1(C)O [Example 132] | 0.0839 (≈ 0.0842 µM) | 0.295 (≈ 0.296 µM) | 0.229 (≈ 0.229 µM) |  |
| CC[C@H]1OC(=O)[C@H](C)[C@@H](O[C@H]2C[C@@](C)(OC)[C@@H](O)[C@H](C)O2)[C@H](C)[C@@H](O[C@@H]2O[C@H](C)C[C@H](N(C)C)[C@H]2O)[C@](C)(O)C[C@@H](C)CN(CCCNC(=S)Nc2ccc(OC)cc2)[C@H](C)[C@@H](O)[C@]1(C)O [Example 102] | 0.201 (≈ 0.209 µM) | 0.46 (≈ 0.48 µM) | 0.0737 (≈ 0.077 µM) |  |
| CCOC(=O)c1ccc(NC(=S)NCCCN2C[C@H](C)C[C@@](C)(O)[C@H](O[C@@H]3O[C@H](C)C[C@H](N(C)C)[C@H]3O)[C@@H](C)[C@H](O[C@H]3C[C@@](C)(OC)[C@@H](O)[C@H](C)O3)[C@@H](C)C(=O)O[C@H](CC)[C@@](C)(O)[C@H](O)[C@H]2C)cc1 [Example 112] | 0.107 (≈ 0.107 µM) | 0.121 (≈ 0.121 µM) | 0.0709 (≈ 0.0709 µM) |  |

Second part, the compound after the results:

| IC50 [1] [µg/mL] | IC50 ([2]; read-out: IC50 D6) [µg/mL] | IC50 [3] [µg/mL] | IC50 [2, 4] [µg/mL] | Compound |
| --- | --- | --- | --- | --- |
| 0.142 | 0.23 | 0.117 |  | CC[C@H]1OC(=O)[C@H](C)[C@@H](O[C@H]2C[C@@](C)(OC)[C@@H](O)[C@H](C)O2)[C@H](C)[C@@H](O[C@@H]2O[C@H](C)C[C@H](N(C)C)[C@H]2O)[C@](C)(O)C[C@@H](C)CN(CCCNC(=S)Nc2ccc(Oc3ccccc3)nc2)[C@H](C)[C@@H](O)[C@]1(C)O.O=CO [Example 146] |
| 0.182 | 0.274 | 0.178 |  | CC[C@H]1OC(=O)[C@H](C)[C@@H](O[C@H]2C[C@@](C)(OC)[C@@H](O)[C@H](C)O2)[C@H](C)[C@@H](O[C@@H]2O[C@H](C)C[C@H](N(C)C)[C@H]2O)[C@](C)(O)C[C@@H](C)CN(CCCNC(=S)Nc2ccc(Br)cc2)[C@H](C)[C@@H](O)[C@]1(C)O.O=CO [Example 137] |
| 0.24 (≈ 0.252 µM) | 0.425 (≈ 0.445 µM) | 0.0919 (≈ 0.0962 µM) |  | CCc1ccccc1NC(=S)NCCCN1C[C@H](C)C[C@@](C)(O)[C@H](O[C@@H]2O[C@H](C)C[C@H](N(C)C)[C@H]2O)[C@@H](C)[C@H](O[C@H]2C[C@@](C)(OC)[C@@H](O)[C@H](C)O2)[C@@H](C)C(=O)O[C@H](CC)[C@@](C)(O)[C@H](O)[C@H]1C [Example 101] |
| 0.234 | 0.322 | 0.439 |  | CC[C@H]1OC(=O)[C@H](C)[C@@H](O[C@H]2C[C@@](C)(OC)[C@@H](O)[C@H](C)O2)[C@H](C)[C@@H](O[C@@H]2O[C@H](C)C[C@H](N(C)C)[C@H]2O)[C@](C)(O)C[C@@H](C)CN(CCCNC(=S)NCc2ccco2)[C@H](C)[C@@H](O)[C@]1(C)O.O=CO [Example 143] |
| 0.121 | 0.978 | 0.396 |  | CC[C@H]1OC(=O)[C@H](C)[C@@H](O[C@H]2C[C@@](C)(OC)[C@@H](O)[C@H](C)O2)[C@H](C)[C@@H](O[C@@H]2O[C@H](C)C[C@H](N(C)C)[C@H]2O)[C@](C)(O)C[C@@H](C)CN(CCCNC(=S)Nc2ccccc2F)[C@H](C)[C@@H](O)[C@]1(C)O.O=CO [Example 136] |
| 0.142 (≈ 0.138 µM) | 0.457 (≈ 0.445 µM) | 0.207 (≈ 0.201 µM) |  | CC[C@H]1OC(=O)[C@H](C)[C@@H](O[C@H]2C[C@@](C)(OC)[C@@H](O)[C@H](C)O2)[C@H](C)[C@@H](O[C@@H]2O[C@H](C)C[C@H](N(C)C)[C@H]2O)[C@](C)(O)C[C@@H](C)CN(CCCNC(=O)Nc2ccc(OC)c(OC3CCCC3)c2)[C@H](C)[C@@H](O)[C@]1(C)O [Example 86] |
| 0.259 | 0.698 | 0.303 |  | CC[C@H]1OC(=O)[C@H](C)[C@@H](O[C@H]2C[C@@](C)(OC)[C@@H](O)[C@H](C)O2)[C@H](C)[C@@H](O[C@@H]2O[C@H](C)C[C@H](N(C)C)[C@H]2O)[C@](C)(O)C[C@@H](C)CN(CCCNC(=O)NC2CCN(C(=O)OCc3ccccc3)CC2)[C@H](C)[C@@H](O)[C@]1(C)O.O=CO [Example 91] |
